The values that follow come from ChEMBL document CHEMBL1141517 (Bioorg Med Chem Lett, 2008).

One assay concerns Helicobacter pylori. The assay is described as follows: Ratio of Km of fructose bis-phosphate for Helicobacter pyroli recombinant Fba to Ki of compound for Helicobacter pyroli recombinant Fba.
A short description of assay [1]: Inhibition of Helicobacter pyroli recombinant Fba expressed in Escherichia coli JM 109. Set-up: species or system Helicobacter pylori.
Assay [2] in a line: Inhibition of yeast Fba. Set-up: species or system Saccharomyces cerevisiae.
A further assay is filed under the species Oryctolagus cuniculus. The assay is described as follows: Ratio of Km of fructose bis-phosphate for rabbit Fba to Ki of compound for rabbit Fba.
Assay [3] in a line: Inhibition of rabbit muscle Fba. Set-up: species or system Oryctolagus cuniculus.
In another assay the test system is Saccharomyces cerevisiae. The assay is described as follows: Ratio of Km of fructose bis-phosphate for yeast Fba to Ki of compound for yeast Fba.

For the molecule `O=P(O)(O)OC[C@@H](O)[C@@H](O)[C@H](O)[C@H](O)COP(=O)(O)O`, the Ratio came out at 0.27 with Helicobacter pylori, 2.74 in the assay filed under Oryctolagus cuniculus and 0.5 in the assay with Saccharomyces cerevisiae. Moreover, the Ki (usually a dissociation constant, usually derived from enzyme kinetics or from competition with a known ligand) worked out at 73 nM in assay [1], 400 nM in assay [2] and 7300 nM in assay [3].

For the molecule `O=P(O)(O)OC[C@@H](O)[C@@H](O)[C@H](O)[C@@H](O)COP(=O)(O)O`, the Ratio was found to be 0.12 in the assay on Helicobacter pylori, 0.2 in the assay listed under Oryctolagus cuniculus and 3.33 with Saccharomyces cerevisiae. The Ki in assay [1] was found to be 170 nM; in assay [2], 60 nM; in assay [3] it was 100000 nM.
